# In US9745325B2, “Fused heterocyclic compound” (Takeda Pharmaceutical Company Limited, priority 2014, dated 2017):
# Tests used:
# CDC2L6/CycC (CDK19) = biological target: T1, CDC2L6/CycC (CDK19) (Homo sapiens, UniProt Q9BWU1); assay: CDK19 inhibitory activity (Kinase Tracer-236 / Eu-anti-GST fluorescence assay); assay type: binding; design: Percent inhibition of CDK19 activity (%): concentration or dose not given beside the values; settings: test compound concentration given as '1 1.1.1\4' [sic]
# T1 construct: purchased Carna Biosciences Inc
# Experimental: (§1) The compound of the present invention was evaluated for its CDK8 inhibitory activity and CDK19 inhibitory activity by the following method. […] The primary diluted solution was dispensed in the amount of 2 μL/well to a 384-well plate, and then, a mixed solution of Eu^3+ Cryptate conjugated mouse monoclonal antibody anti-glutathione S-transferase (Cisbio) diluted 267-fold with an assay buffer and 60 nM Kinase Tracer-236 (Life technologies) was added thereto at 2 μL/well. […] After the addition, the plate was left standing at room temperature for 1 hour, and then, the fluorescence intensity (excitation wavelength 320 nm, fluorescence wavelength 615 nm, 665 nm, delay time 50 μsec) was measured using ann EnVision plate reader (PerkinElmer). The percent inhibition of CDK8 or CDK19 activity by the test compound can be calculated according to the following formula, wherein the fluorescence intensity of a reaction solution in the absence of compound is defined as the control, and the fluorescence intensity of a reaction solution in the presence of 10 μM of control compound is defined as the blank.
# [1] = test system: human multiple myeloma RPMI8226 cells; assay: Inhibitory activity against human multiple myeloma RPMI8226 cell growth (CellTiter-Glo); assay type: cell-based; settings: Homo sapiens, RPMI-8226, 192 h, 1 μM test compound, cultured for 8 days; read-out: Percent inhibition of RPMI8226 cell growth (%)
# Experimental: The compound of the present invention was evaluated for its inhibitory activity against human multiple myeloma RPMI8226 cell growth by the following method.
# A suspension of human multiple myeloma RPMI8226 cells (purchased from the Health Protection Agency) was inoculated at 40 μL (300 cells/well) to a 384-well plate and cultured at 37° C. for 1 day in a 5% CO2 incubator. After the culture, each test compound solution was added thereto at a test concentration of 1 μM using TECAN D300, and the cells were further cultured for 8 days. After the culture, CellTiter-Glo™ Luminescent Cell Viability Assay reagent (Promega) was added at 40 μL/well to a 384-well plate, and the amount of luminescence was measured using a luminometer. Inhibitory activity against human multiple myeloma RPMI8226 cell growth (percent inhibition (%)) of the test compound was calculated according to the following formula, which is based on the hypothesis that the amount of residual ATP reflects the number of cells. In this formula, 100% control represents the amount of luminescence from a well with only 0.1% DMSO added. Percent inhibition (%)=(1−(amount of luminescence of the test compound)÷(100% control))×100
# CDK8/CycC = biological target: T2, CDK8/CycC (Homo sapiens, UniProt P49336); assay: CDK8 inhibitory activity (Kinase Tracer-236 / Eu-anti-GST fluorescence assay); assay type: binding; design: Percent inhibition of CDK8 activity (%): concentration or dose not given beside the values; settings: test compound concentration given as '1 1.1.1\4' [sic]
# T2 construct: purchased Carna Biosciences
# Experimental: as §1
# T1 sequence (Q9BWU1 whole entry): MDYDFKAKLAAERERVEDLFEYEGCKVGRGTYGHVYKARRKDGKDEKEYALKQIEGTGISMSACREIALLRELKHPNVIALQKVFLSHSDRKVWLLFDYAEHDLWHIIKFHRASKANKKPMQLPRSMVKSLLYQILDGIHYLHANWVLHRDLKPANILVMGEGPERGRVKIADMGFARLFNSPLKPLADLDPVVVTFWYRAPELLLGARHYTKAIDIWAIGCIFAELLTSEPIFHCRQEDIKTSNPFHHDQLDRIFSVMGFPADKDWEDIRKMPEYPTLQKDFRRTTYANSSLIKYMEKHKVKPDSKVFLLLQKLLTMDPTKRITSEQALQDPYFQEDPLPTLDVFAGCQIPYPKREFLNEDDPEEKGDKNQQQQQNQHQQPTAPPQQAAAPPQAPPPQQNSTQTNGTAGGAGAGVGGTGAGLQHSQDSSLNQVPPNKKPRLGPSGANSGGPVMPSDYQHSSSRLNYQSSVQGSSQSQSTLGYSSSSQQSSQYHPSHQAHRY
# T1 sequence (P24863 whole entry partner): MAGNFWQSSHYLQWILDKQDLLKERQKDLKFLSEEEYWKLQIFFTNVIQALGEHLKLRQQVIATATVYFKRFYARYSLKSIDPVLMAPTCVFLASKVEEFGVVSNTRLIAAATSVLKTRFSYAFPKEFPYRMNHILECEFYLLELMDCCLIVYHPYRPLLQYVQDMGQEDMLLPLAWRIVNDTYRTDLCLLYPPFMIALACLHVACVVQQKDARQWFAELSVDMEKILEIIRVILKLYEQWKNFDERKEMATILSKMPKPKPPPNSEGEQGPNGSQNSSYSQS
# T2 sequence (P49336 whole entry): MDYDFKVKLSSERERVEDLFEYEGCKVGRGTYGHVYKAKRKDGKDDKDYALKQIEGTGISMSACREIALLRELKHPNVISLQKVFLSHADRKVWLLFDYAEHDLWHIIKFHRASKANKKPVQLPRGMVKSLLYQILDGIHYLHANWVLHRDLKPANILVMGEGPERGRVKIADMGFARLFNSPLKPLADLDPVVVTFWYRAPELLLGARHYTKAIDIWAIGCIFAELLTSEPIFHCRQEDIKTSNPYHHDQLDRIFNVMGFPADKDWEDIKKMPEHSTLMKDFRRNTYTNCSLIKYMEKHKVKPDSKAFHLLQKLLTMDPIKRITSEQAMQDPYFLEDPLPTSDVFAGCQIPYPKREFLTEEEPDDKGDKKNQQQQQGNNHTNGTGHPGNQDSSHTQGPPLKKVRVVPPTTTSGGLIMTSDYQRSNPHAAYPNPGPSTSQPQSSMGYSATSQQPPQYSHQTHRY
# T2 sequence (P24863 whole entry partner): as the sequence (P24863 whole entry partner) above
Percent inhibition of CDK19 activity (%) (CDC2L6/CycC (CDK19)),Percent inhibition of CDK8 activity (%) (CDK8/CycC),SMILES,inhibition at 1 µM [1]
95%,106%,"COCCN(C)C(=O)c1ccc(Oc2sc(C(N)=O)c3c2-c2sncc2CC3)cn1 [Example 101, 8-((6-((2-Methoxyethyl)(methyl)carbamoyl)pyridin-3-yl)oxy)-4,5-dihydrothieno[3,4-g][1,2]benzothiazole-6-carboxamide]",65%
100%,103%,"NC(=O)c1sc(Oc2ccc(C(=O)N3CCCC3)nc2)c2c1CCc1cnsc1-2 [Example 102, 8-((6-(Pyrrolidin-1-ylcarbonyl)pyridin-3-yl)oxy)-4,5-dihydrothieno[3,4-g][1,2] benzothiazole-6-carboxamide]",58%
95%,103%,"N#Cc1cncc(Oc2sc(C(N)=O)c3c2-c2sncc2CC3)c1 [Example 103, 8-((5-Cyanopyridin-3-yl)oxy)-4,5-dihydrothieno[3,4-g][1,2]benzothiazole-6-carboxamide]",52%
102%,101%,NC(=O)c1sc(Oc2ccc(C(=O)N3CCC3)nc2)c2c1CCc1cnsc1-2 [Example 104],66%
96%,99%,CN(CCO)C(=O)c1ccc(Oc2sc(C(N)=O)c3c2-c2sncc2CC3)cn1 [Example 105],54%
95%,97%,"NC(=O)c1sc(Oc2ccc(C(=O)N3CCCCC3)nc2)c2c1CCc1cnsc1-2 [Example 106, 8-((6-(Piperidin-1-ylcarbonyl)pyridin-3-yl)oxy)-4,5-dihydrothieno[3,4-g][1,2] benzothiazole-6-carboxamide]",58%
99%,101%,"CN(C(=O)C1CC1)c1ccc(Oc2sc(C(N)=O)c3c2-c2sncc2CC3)cn1 [Example 108, 8-((6-((Cyclopropylcarbonyl)(methyl)amimo)pyridin-3-yl)oxy)-4,5-dihydrothieno[3,4-g][1,2]benzothiazole-6-carboxamide]",63%
98%,105%,"NC(=O)c1sc(Oc2ccc(C(=O)N3CC[C@@H](O)C3)nc2)c2c1CCc1cnsc1-2 [Example 109, 8-((6-(((3R)-3-Hydroxypyrrolidin-1-yl)carbonyl)pyridin-3-yl)oxy)-4,5-dihydrothieno[3,4-g][1,2]benzothiazole-6-carboxamide]",63%
98%,103%,"NC(=O)c1sc(Oc2ccc(C(=O)N3CC[C@H](O)C3)nc2)c2c1CCc1cnsc1-2 [Example 110, 8-((6-(((3S)-3-Hydroxypyrrolidin-1-yl)carbonyl)pyridin-3-yl)oxy)-4,5-dihydrothieno[3,4-g][1,2]benzothiazole-6-carboxamide]",63%
100%,107%,"COC1CN(C(=O)c2ccc(Oc3sc(C(N)=O)c4c3-c3sncc3CC4)cn2)C1 [Example 111, 8-((6-((3-Methoxyazetidin-1-yl)carbonyl)pyridin-3-yl)oxy)-4,5-dihydrothieno[3,4-g][1,2]benzothiazole-6-carboxamide]",58%
102%,106%,"CNC(=O)c1ccc(Oc2sc(C(N)=O)c3c2-c2sncc2CC3)c(C)n1 [Example 112, 8-((2-Methyl-6-(methylcarbamoyl)pyridin-3-yl)oxy)-4,5-dihydrothieno [3,4-g][1,2]benzothiazole-6-carboxamide]",69%
101%,108%,"COC1CN(C(=O)c2ccc(Oc3sc(C(N)=O)c4c3-c3sncc3CC4)c(C)n2)C1 [Example 113, 8-((6-((3-Methoxyazetidin-1-yl)carbonyl)-2-methylpyridin-3-yl)oxy)-4,5-dihydrothieno[3,4-g][1,2] benzothiazole-6-carboxamide]",68%
100%,108%,"CC(C)(O)CNC(=O)c1ccc(Oc2sc(C(N)=O)c3c2-c2sncc2CC3)cn1 [Example 114, 8-((6-((2-Hydroxy-2-methylpropyl)carbamoyl)pyridin-3-yl)oxy)-4,5-dihydrothieno[3,4-g][1,2]benzothiazole-6-carboxamide]",65%
95%,100%,"CN(CC(C)(C)O)C(=O)c1ccc(Oc2sc(C(N)=O)c3c2-c2sncc2CC3)cn1 [Example 115, 8-((6-((2-Hydroxy-2-methylpropyl) (methyl)carbamoyl)pyridin-3-yl)oxy)-4,5-dihydrothieno[3,4-g][1,2] benzothiazole-6-carboxamide]",63%
99%,103%,"Cc1nc(C(=O)N(C)C)ccc1Oc1sc(C(N)=O)c2c1-c1sncc1CC2 [Example 116, 8-((6-(Dimethylcarbamoyl)-2-methylpyridin-3-yl)oxy)-4,5-dihydrothieno[3,4-g][1,2]benzothiazole-6-carboxamide]",61%
99%,110%,"CCOCCNC(=O)c1ccc(Oc2sc(C(N)=O)c3c2-c2sncc2CC3)cn1 [Example 117, 8-((6-((2-Ethoxyethyl)carbamoyl)pyridin-3-yl)oxy)-4,5-dihydrothieno [3,4-g][1,2]benzothiazole-6-carboxamide]",64%
100%,104%,"NC(=O)c1sc(Oc2ccc(C(=O)NC3CC3)nc2)c2c1CCc1cnsc1-2 [Example 118, 8-((6-(Cyclopropylcarbamoyl)pyridin-3-yl)oxy)-4,5-dihydrothieno[3,4-g][1,2] benzothiazole-6-carboxamide]",64%
101%,108%,"CCOCCNC(=O)c1ccc(Oc2sc(C(N)=O)c3c2-c2sncc2CC3)c(C)n1 [Example 119, 8-((6-((2-Ethoxyethyl)carbamoyl)-2-methylpyridin-3-yl)oxy)-4,5-dihydrothieno[3,4-g][1,2]benzothiazole-6-carboxamide]",68%
99%,104%,CCOCCNC(=O)c1ccc(Oc2sc(C(N)=O)c3c2-c2sncc2CC3)cc1 [Example 120],74%
101%,104%,"COCCN(C)C(=O)c1ccc(Oc2sc(C(N)=O)c3c2-c2sncc2CC3)c(C)n1 [Example 121, 8-((6-((2-Methoxyethyl)(methyl)carbamoyl)-2-methylpyridin-3-yl)oxy)-4,5-dihydrothieno[3,4-g][1,2] benzothiazole-6-carboxamide]",63%
101%,100%,COCCN(C)C(=O)c1ccc(Oc2sc(C(N)=O)c3c2-c2sncc2CC3)cc1 [Example 123],64%
101%,105%,"Cc1n[nH]c(C)c1Oc1sc(C(N)=O)c2c1-c1sncc1CC2 [Example 124, 8-((3,5-Dimethyl-1H-pyrazol-4-yl)oxy)-4,5-dihydrothieno[3,4-g][1,2] benzothiazole-6-carboxamide]",70%
101%,102%,"COCC(=O)N(C)c1ccc(Oc2sc(C(N)=O)c3c2-c2sncc2CC3)cn1 [Example 125, 8-((6-((Methoxyacetyl)(methyl)amino)pyridin-3-yl)oxy)-4,5-dihydrothieno [3,4-g][1,2]benzothiazole-6-carboxamide]",66%
